Reference: publication PMC6891286, “Towards the Development of an In vivo Chemical Probe for Cyclin G Associated Kinase (GAK)” (Molecules, 2019)

How the values were obtained:
Assay in all cases: KINOMEscan
Assay type in all cases: binding
Details in all cases: 35 at 1 µM; read-out: % inhibition
[1] = target: T1, ABL1(M351T)-phosphorylated (Homo sapiens, UniProt P00519, M351T)
T1 construct: purchased Eurofins DiscoverX (KINOMEscan)
Procedure: (§1) KinomeScan Assay on 35 was performed as previously described at EuroFins DiscoverX (Fremont, CA, USA).

[2] = target: T2, ABL1(Y253F)-phosphorylated (Homo sapiens, UniProt P00519, Y253F)
T2 construct: purchased Eurofins DiscoverX (KINOMEscan)
Procedure: as §1

BTK = target: T3, BTK (Homo sapiens, UniProt Q06187)
T3 construct: purchased Eurofins DiscoverX (KINOMEscan)
Procedure: as §1

CDK4-cyclinD1 = target: T4, CDK4-cyclinD1 (Homo sapiens, UniProt P11802)
T4 construct: purchased Eurofins DiscoverX (KINOMEscan)
Procedure: as §1

CDK4-cyclinD3 = target: T5, CDK4-cyclinD3 (Homo sapiens, UniProt P11802)
T5 construct: purchased Eurofins DiscoverX (KINOMEscan)
Procedure: as §1

CDKL2 = target: T6, CDKL2 (Homo sapiens, UniProt Q92772)
T6 construct: purchased Eurofins DiscoverX (KINOMEscan)
Procedure: as §1

CHEK1 = target: T7, CHEK1 (Homo sapiens, UniProt O14757)
T7 construct: purchased Eurofins DiscoverX (KINOMEscan)
Procedure: as §1

EGFR(G719S) = target: T8, EGFR(G719S) (Homo sapiens, UniProt P00533, G719S)
T8 construct: purchased Eurofins DiscoverX (KINOMEscan)
Procedure: as §1

EPHA3 = target: T9, EPHA3 (Homo sapiens, UniProt P29320)
T9 construct: purchased Eurofins DiscoverX (KINOMEscan)
Procedure: as §1

EPHB4 = target: T10, EPHB4 (Homo sapiens, UniProt P54760)
T10 construct: purchased Eurofins DiscoverX (KINOMEscan)
Procedure: as §1

EPHB6 = target: T11, EPHB6 (Homo sapiens, UniProt O15197)
T11 construct: purchased Eurofins DiscoverX (KINOMEscan)
Procedure: as §1

ERK4 = target: T12, ERK4 (Homo sapiens, UniProt P31152)
T12 construct: purchased Eurofins DiscoverX (KINOMEscan)
Procedure: as §1

ERK5 = target: T13, ERK5 (Homo sapiens, UniProt Q13164)
T13 construct: purchased Eurofins DiscoverX (KINOMEscan)
Procedure: as §1

FGR = target: T14, FGR (Homo sapiens, UniProt P09769)
T14 construct: purchased Eurofins DiscoverX (KINOMEscan)
Procedure: as §1

FLT3 = target: T15, FLT3 (Homo sapiens, UniProt P36888)
T15 construct: purchased Eurofins DiscoverX (KINOMEscan)
Procedure: as §1

GSK3B = target: T16, GSK3B (Homo sapiens, UniProt P49841)
T16 construct: purchased Eurofins DiscoverX (KINOMEscan)
Procedure: as §1

HASPIN = target: T17, HASPIN (Homo sapiens, UniProt Q8TF76)
T17 construct: purchased Eurofins DiscoverX (KINOMEscan)
Procedure: as §1

ITK = target: T18, ITK (Homo sapiens, UniProt Q08881)
T18 construct: purchased Eurofins DiscoverX (KINOMEscan)
Procedure: as §1

[3] = target: T19, JAK3(JH1domain-catalytic) (Homo sapiens, UniProt P52333)
T19 construct: JAK3(JH1domain-catalytic); purchased Eurofins DiscoverX (KINOMEscan)
Procedure: as §1

JNK2 = target: T20, JNK2 (Homo sapiens, UniProt P45984)
T20 construct: purchased Eurofins DiscoverX (KINOMEscan)
Procedure: as §1

LATS2 = target: T21, LATS2 (Homo sapiens, UniProt Q9NRM7)
T21 construct: purchased Eurofins DiscoverX (KINOMEscan)
Procedure: as §1

LTK = target: T22, LTK (Homo sapiens, UniProt P29376)
T22 construct: purchased Eurofins DiscoverX (KINOMEscan)
Procedure: as §1

MAP3K4 = target: T23, MAP3K4 (Homo sapiens, UniProt Q9Y6R4)
T23 construct: purchased Eurofins DiscoverX (KINOMEscan)
Procedure: as §1

NEK10 = target: T24, NEK10 (Homo sapiens, UniProt Q6ZWH5)
T24 construct: purchased Eurofins DiscoverX (KINOMEscan)
Procedure: as §1

PFTK1 = target: T25, PFTK1 (Homo sapiens, UniProt O94921)
T25 construct: purchased Eurofins DiscoverX (KINOMEscan)
Procedure: as §1

PIK3CA(H1047Y) = target: T26, PIK3CA(H1047Y) (Homo sapiens, UniProt P42336, H1047Y)
T26 construct: purchased Eurofins DiscoverX (KINOMEscan)
Procedure: as §1

PIK3CA(Q546K) = target: T27, PIK3CA(Q546K) (Homo sapiens, UniProt P42336, Q546K)
T27 construct: purchased Eurofins DiscoverX (KINOMEscan)
Procedure: as §1

PIP5K1C = target: T28, PIP5K1C (Homo sapiens, UniProt O60331)
T28 construct: purchased Eurofins DiscoverX (KINOMEscan)
Procedure: as §1

PRKCE = target: T29, PRKCE (Homo sapiens, UniProt Q02156)
T29 construct: purchased Eurofins DiscoverX (KINOMEscan)
Procedure: as §1

RIOK1 = target: T30, RIOK1 (Homo sapiens, UniProt Q9BRS2)
T30 construct: purchased Eurofins DiscoverX (KINOMEscan)
Procedure: as §1

[4] = target: T31, RSK4(Kin.Dom.2-C-terminal) (Homo sapiens, UniProt Q9UK32)
T31 construct: RSK4(Kin.Dom.2-C-terminal); purchased Eurofins DiscoverX (KINOMEscan)
Procedure: as §1

SGK = target: T32, SGK (Homo sapiens, UniProt O00141)
T32 construct: purchased Eurofins DiscoverX (KINOMEscan)
Procedure: as §1

SRPK1 = target: T33, SRPK1 (Homo sapiens, UniProt Q96SB4)
T33 construct: purchased Eurofins DiscoverX (KINOMEscan)
Procedure: as §1

TTK = target: T34, TTK (Homo sapiens, UniProt P33981)
T34 construct: purchased Eurofins DiscoverX (KINOMEscan)
Procedure: as §1

VPS34 = target: T35, VPS34 (Homo sapiens, UniProt Q8NEB9)
T35 construct: purchased Eurofins DiscoverX (KINOMEscan)
Procedure: as §1

VRK2 = target: T36, VRK2 (Homo sapiens, UniProt Q86Y07)
T36 construct: purchased Eurofins DiscoverX (KINOMEscan)
Procedure: as §1

WNK4 = target: T37, WNK4 (Homo sapiens, UniProt Q96J92)
T37 construct: purchased EuroFins DiscoverX (Fremont, CA, USA)
Procedure: as §1

YSK1 = target: T38, YSK1 (Homo sapiens, UniProt O00506)
T38 construct: purchased EuroFins DiscoverX (Fremont, CA, USA)
Procedure: as §1

YSK4 = target: T39, YSK4 (Homo sapiens, UniProt Q56UN5)
T39 construct: purchased Eurofins DiscoverX (KINOMEscan)
Procedure: as §1

ZAK = target: T40, ZAK (Homo sapiens, UniProt Q9NYL2)
T40 construct: purchased EuroFins DiscoverX (Fremont, CA, USA)
Procedure: as §1

p38-alpha = target: T41, p38-alpha (Homo sapiens, UniProt Q16539)
T41 construct: purchased Eurofins DiscoverX (KINOMEscan)
Procedure: as §1

p38-gamma = target: T42, p38-gamma (Homo sapiens, UniProt P53778)
T42 construct: purchased Eurofins DiscoverX (KINOMEscan)
Procedure: as §1

T38 sequence (O00506 whole entry): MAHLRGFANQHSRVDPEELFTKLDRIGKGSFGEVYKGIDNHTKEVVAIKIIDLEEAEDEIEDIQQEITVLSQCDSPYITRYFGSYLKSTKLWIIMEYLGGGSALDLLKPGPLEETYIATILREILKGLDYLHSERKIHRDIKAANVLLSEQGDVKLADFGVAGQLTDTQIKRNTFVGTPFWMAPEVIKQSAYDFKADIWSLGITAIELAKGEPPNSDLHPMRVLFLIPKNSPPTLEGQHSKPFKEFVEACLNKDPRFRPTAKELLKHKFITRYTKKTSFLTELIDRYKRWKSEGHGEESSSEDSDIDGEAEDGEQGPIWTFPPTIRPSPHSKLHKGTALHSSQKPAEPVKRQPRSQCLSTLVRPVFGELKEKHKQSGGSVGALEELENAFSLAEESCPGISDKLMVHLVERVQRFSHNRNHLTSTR
T29 sequence (Q02156 whole entry): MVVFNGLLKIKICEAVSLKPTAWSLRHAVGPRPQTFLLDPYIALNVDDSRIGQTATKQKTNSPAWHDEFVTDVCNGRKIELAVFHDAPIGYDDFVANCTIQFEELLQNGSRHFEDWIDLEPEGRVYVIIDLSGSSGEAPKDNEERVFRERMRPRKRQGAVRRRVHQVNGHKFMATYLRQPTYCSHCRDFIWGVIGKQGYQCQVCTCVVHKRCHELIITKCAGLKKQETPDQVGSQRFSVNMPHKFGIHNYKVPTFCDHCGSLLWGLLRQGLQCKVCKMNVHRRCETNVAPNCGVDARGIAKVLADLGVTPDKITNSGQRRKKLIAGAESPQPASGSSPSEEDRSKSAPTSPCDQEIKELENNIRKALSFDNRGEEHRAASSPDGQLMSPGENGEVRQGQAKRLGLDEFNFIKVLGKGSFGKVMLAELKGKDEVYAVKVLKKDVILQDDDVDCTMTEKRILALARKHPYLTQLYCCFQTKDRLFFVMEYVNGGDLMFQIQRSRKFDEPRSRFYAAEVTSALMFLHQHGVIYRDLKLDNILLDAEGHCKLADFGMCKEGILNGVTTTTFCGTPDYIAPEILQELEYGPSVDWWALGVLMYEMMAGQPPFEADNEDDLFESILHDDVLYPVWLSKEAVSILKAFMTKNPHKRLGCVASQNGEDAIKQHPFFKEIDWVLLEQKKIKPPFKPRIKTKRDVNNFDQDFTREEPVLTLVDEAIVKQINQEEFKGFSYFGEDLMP
T27 sequence (P42336 whole entry Q546K): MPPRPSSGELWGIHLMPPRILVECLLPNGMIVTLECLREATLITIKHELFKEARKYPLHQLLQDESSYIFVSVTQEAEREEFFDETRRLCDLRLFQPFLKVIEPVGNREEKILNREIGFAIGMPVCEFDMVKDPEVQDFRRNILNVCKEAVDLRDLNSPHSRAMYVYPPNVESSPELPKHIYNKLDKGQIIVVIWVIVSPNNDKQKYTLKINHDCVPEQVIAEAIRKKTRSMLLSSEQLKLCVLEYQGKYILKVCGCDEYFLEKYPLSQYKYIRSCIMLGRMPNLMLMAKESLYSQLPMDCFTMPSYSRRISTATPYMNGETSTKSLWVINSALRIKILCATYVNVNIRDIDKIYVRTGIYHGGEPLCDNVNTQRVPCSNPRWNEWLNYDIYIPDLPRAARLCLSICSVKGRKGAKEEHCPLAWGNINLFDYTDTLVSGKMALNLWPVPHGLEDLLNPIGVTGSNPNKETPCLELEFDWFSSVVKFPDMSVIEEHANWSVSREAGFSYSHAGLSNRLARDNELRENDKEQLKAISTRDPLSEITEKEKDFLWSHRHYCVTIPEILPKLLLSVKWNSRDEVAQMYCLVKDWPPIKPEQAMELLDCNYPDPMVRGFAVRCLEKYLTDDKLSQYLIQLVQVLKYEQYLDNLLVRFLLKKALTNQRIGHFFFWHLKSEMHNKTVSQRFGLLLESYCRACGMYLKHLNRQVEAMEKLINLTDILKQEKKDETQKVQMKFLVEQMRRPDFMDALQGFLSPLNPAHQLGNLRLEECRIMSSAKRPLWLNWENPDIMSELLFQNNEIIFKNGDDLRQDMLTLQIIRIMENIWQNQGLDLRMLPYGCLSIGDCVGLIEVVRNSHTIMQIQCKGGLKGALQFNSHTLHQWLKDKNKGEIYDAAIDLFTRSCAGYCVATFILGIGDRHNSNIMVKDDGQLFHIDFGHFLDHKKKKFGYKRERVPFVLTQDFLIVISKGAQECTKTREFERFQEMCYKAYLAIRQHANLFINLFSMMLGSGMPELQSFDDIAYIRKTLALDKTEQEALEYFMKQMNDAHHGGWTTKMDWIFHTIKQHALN
T13 sequence (Q13164 whole entry): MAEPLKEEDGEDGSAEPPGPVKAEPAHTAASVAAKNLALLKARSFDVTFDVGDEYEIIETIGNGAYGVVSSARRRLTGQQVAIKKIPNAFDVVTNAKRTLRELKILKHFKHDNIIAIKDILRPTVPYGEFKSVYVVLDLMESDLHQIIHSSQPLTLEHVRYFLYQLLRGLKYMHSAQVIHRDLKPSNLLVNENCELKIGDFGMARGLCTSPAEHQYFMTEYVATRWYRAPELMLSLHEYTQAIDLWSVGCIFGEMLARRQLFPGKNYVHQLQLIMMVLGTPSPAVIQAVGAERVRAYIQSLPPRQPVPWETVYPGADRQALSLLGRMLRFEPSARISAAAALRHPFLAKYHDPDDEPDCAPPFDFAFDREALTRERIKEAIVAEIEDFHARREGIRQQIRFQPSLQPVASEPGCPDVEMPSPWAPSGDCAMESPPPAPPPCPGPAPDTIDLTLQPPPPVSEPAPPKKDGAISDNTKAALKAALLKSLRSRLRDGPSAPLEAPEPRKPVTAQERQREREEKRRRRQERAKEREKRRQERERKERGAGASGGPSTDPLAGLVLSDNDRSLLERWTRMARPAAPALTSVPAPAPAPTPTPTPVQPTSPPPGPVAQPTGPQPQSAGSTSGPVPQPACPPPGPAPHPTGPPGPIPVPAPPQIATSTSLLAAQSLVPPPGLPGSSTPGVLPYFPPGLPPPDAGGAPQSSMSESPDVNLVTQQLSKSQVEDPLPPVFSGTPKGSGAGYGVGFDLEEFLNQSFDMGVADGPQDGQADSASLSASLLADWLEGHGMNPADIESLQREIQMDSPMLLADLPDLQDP
T24 sequence (Q6ZWH5 whole entry): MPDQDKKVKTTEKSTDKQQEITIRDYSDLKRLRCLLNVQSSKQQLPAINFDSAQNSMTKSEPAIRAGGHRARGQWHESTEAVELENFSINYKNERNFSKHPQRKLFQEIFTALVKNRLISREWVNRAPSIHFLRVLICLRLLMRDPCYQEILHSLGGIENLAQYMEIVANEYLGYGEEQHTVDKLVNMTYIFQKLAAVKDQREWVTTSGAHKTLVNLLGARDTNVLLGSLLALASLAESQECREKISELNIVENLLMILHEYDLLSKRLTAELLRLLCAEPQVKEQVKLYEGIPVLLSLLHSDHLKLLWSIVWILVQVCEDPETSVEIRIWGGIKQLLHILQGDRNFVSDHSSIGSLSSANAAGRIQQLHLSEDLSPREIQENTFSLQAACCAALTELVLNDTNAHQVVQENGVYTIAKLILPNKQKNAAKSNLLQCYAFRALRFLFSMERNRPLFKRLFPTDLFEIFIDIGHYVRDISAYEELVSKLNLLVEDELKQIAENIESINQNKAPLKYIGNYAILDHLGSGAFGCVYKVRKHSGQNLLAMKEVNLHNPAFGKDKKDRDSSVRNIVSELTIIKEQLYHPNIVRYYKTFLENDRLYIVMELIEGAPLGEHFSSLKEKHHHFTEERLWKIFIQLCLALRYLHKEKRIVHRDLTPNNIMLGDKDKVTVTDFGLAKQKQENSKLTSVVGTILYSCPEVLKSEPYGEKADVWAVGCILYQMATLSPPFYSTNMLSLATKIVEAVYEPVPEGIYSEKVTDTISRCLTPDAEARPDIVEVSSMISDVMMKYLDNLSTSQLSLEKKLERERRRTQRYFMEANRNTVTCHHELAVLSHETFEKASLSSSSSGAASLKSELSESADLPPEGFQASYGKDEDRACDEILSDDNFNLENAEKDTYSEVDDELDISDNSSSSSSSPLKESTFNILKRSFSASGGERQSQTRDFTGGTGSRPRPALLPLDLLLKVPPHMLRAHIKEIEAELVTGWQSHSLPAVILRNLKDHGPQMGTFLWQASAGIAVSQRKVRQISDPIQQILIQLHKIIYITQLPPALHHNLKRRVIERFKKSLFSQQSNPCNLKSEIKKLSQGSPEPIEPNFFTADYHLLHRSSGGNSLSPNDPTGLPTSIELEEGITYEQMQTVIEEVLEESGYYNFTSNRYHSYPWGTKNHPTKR
T33 sequence (Q96SB4 whole entry): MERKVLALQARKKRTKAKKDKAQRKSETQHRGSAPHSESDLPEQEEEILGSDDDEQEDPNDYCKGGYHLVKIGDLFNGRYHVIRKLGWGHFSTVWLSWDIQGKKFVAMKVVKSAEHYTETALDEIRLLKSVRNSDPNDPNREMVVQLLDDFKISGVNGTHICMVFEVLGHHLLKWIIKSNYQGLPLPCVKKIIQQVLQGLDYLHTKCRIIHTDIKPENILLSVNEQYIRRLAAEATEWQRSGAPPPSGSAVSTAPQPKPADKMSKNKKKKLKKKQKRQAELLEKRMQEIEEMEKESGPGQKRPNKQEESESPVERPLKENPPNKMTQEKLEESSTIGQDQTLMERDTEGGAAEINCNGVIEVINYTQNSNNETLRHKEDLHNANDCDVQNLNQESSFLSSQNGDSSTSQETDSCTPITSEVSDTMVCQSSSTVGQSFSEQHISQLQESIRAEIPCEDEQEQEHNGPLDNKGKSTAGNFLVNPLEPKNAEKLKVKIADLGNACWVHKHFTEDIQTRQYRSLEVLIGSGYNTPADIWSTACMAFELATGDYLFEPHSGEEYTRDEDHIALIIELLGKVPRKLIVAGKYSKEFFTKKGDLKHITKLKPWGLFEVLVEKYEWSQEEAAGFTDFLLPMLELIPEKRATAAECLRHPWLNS
T26 sequence (P42336 whole entry H1047Y): as the sequence (P42336 whole entry Q546K) above, with K546Q, H1047Y counted along it

## Brc1ccc2nccc(Nc3ccc4cn[nH]c4c3)c2c1 [Compound 35, 6-Bromo-N-(1H-indazol-6-yl)quinolin-4-amine]
[1]
  activity at 1 µM: 100%
[2]
  activity at 1 µM: 100%
BTK
  activity at 1 µM: 100%
CDK4-cyclinD1
  activity at 1 µM: 100%
CDK4-cyclinD3
  activity at 1 µM: 100%
CDKL2
  activity at 1 µM: 100%
CHEK1
  activity at 1 µM: 100%
EGFR(G719S)
  activity at 1 µM: 97%
EPHA3
  activity at 1 µM: 100%
EPHB4
  activity at 1 µM: 100%
EPHB6
  activity at 1 µM: 100%
ERK4
  activity at 1 µM: 97%
ERK5
  activity at 1 µM: 100%
FGR
  activity at 1 µM: 100%
FLT3
  activity at 1 µM: 100%
GSK3B
  activity at 1 µM: 97%
HASPIN
  activity at 1 µM: 79%
ITK
  activity at 1 µM: 100%
[3]
  activity at 1 µM: 83%
JNK2
  activity at 1 µM: 100%
LATS2
  activity at 1 µM: 88%
LTK
  activity at 1 µM: 100%
MAP3K4
  activity at 1 µM: 100%
NEK10
  activity at 1 µM: 100%
PFTK1
  activity at 1 µM: 69%
PIK3CA(H1047Y)
  activity at 1 µM: 100%
PIK3CA(Q546K)
  activity at 1 µM: 100%
PIP5K1C
  activity at 1 µM: 95%
PRKCE
  activity at 1 µM: 95%
RIOK1
  activity at 1 µM: 100%
[4]
  activity at 1 µM: 81%
SGK
  activity at 1 µM: 100%
SRPK1
  activity at 1 µM: 100%
TTK
  activity at 1 µM: 100%
VPS34
  activity at 1 µM: 100%
VRK2
  activity at 1 µM: 100%
WNK4
  activity at 1 µM: 100%
YSK1
  activity at 1 µM: 100%
YSK4
  activity at 1 µM: 98%
ZAK
  activity at 1 µM: 100%
p38-alpha
  activity at 1 µM: 100%
p38-gamma
  activity at 1 µM: 94%
